Data set [1] deals with peripheral blood lymphocyte (PBL) counts. The data set is described as follows: Phase 1 single dose study: peripheral blood lymphocyte counts. Type of data set: in vivo, human. How it is done:
Compound 1 was administered as the L-arginine salt.

The next data set relates to male Sprague-Dawley rats. As to conditions: see WO2010/011316, Example 9; cited from earlier work.
Another data set concerns subjects. The data set is described as follows: Phase 1 single dose study: safety and tolerability. How it is done:
A phase 1 study with Compound 1 was conducted with single dosing at 0.1 mg, 0.35 mg, 1 mg, 3 mg, and 5 mg. Compound 1 was administered as the L-arginine salt.

The text below walks through data of patent US20220023258A1, “METHODS OF TREATING CONDITIONS RELATED TO THE S1P1 RECEPTOR” (Arena Pharmaceuticals, Inc., priority 2018, published 2022).

With `O=C(O)C[C@H]1CCc2c1[nH]c1ccc(OCc3ccc(C4CCCC4)c(C(F)(F)F)c3)cc21` [Compound 1, (R)-2-(7-(4-cyclopentyl-3-(trifluoromethyl)benzyloxy)-1,2,3,4-tetrahydrocyclopenta[b]indol-3-yl)acetic acid], the PBL counts reduced in data set [1] (single dose 3 mg) is reported as around 40%. Also, the PBL counts reduced in data set [1] (single dose 5 mg) is around 55%. Further, the “absolute number of peripheral blood B cells, T cells, NK cells, and all T cell subsets except TEM cells” value in data set [1] (single dose 3 and 5 mg) is reported as “dose responsive decline”. In data set [1] (single dosing), the “persistence of PBL nadir” value turned out to be 24 h, the “time after dosing by which total PBL counts were reduced” value lay within 2 to 4 h and the “time of nadir of total PBL counts” value is at most 8 h. For the same compound, the “recovery of PBL counts to baseline” value in data set [1] (single dosing, after nadir period) stood at 4 days. Moreover, in the data set with male Sprague-Dawley rats, the bradycardia entry was “no or substantially no bradycardia”. Besides, the “other safety issues (vital signs, ECGs, pulmonary function tests, ophthalmoscopy, clinical laboratory tests)” value in the data set on subjects (in vivo) was “no other clinically significant safety issues”. The compound further registered a maximum tolerated dose in the data set on subjects (single dosing) of 3 mg. In the data set on subjects (single dosing 0.1-5 mg), the “deaths or serious adverse events” value is listed as “no deaths or serious adverse events”.
